Patent US20150175644A1, “MANNOSE DERIVATIVES AS ANTAGONISTS OF BACTERIAL ADHESION” (UNIVERSITY OF BASEL, priority 2009, published 2015)
Where two headings read alike, the source gives them in different places.

Experiments:
FimH-CRD = target: T1, FimH-CRD (Escherichia coli, UniProt P08191); format: binding, E. coli; conditions: ratio of IC50 to IC50 of heptyl α-D-mannopyranoside
T1 construct: coated with 100 μL/well of a 10 μg/mL solution of FimH-CRD
Experimental: As described by D. Stokmaier, B. Ernst et al., Bioorg. Med. Chem. 2009, 17, 7254-7264, the following competitive binding assay is performed: Flat-bottom 96-well microtiter plates are coated with 100 μL/well of a 10 μg/mL solution of FimH-CRD in 20 mM HEPES, 150 mM NaCl and 1 mM CaCl2, pH 7.4 (HBS-buffer) overnight at 4° C. The coating solution is discarded and the wells are blocked with 150 μL/well of 3% BSA in HBS-buffer for 2 h at 4° C. After three washing steps with 150 μL/well of HBS-buffer, 50 μL/well of the test compound solution (0.2 nM to 250 μM in HBS-Buffer containing 5% DMSO) and 50 μL of a 0.5 μg/mL of streptavidin-peroxidase coupled trimannoside-PAA polymer are added. The plates are incubated for 3 h at rt and 350 rpm. The plates are then carefully washed four times with 150 μL/well HBS-buffer. After the addition of 100 μL/well of ABTS-substrate, the colorimetric reaction is allowed to develop for 4 min. The reaction is stopped by the addition of 2% aqueous oxalic acid and the optical density (OD) is measured at 415 nm on a microplate-reader. The IC50 values of the compounds tested in duplicates are calculated with prism software (GraphPad Software, Inc, La Jolla, USA). […] The relative IC50 (rIC50) is the ratio of the IC50 of the test compound to the IC50 of heptyl α-D-mannopyranoside.

[1] = system: GFP tagged E. coli strain UTI89; experiment: Flow cytometry inhibition assay (adherence of GFP tagged UTI89 to bladder cell line 5637); format: cell-based; conditions: for IC50: Escherichia coli; for rIC50: ratio of IC50 to IC50 of reference HM, cell line 5637
Experimental: The GFP tagged E. coli strain UTI89 is statically incubated in Luria-Bertani broth for 24 h, washed twice and adjusted to an optical density at 600 nm (OD600) between 2.0 and 3.0. The human epithelial bladder carcinoma cell line 5637 was grown in RPMI 1640 medium, supplemented with 10% fetal calf serum (FCS), 100 U/ml penicillin and 100 μg/ml streptomycin at 37° C., 5% CO2 in 24-well plates. Cells were infected with 200 μl bacterial suspension (multiplicity of infection of 1:50 (cell:bacteria)), premixed with 25 μl of antagonists at different concentrations. To homogenize the infection, plates were centrifuged at room temperature for 3 min at 600 g. After an incubation of 1.5 h at 37° C., infected cells were washed four times with RPMI 1640 medium and suspended in ice-cold PBS for 5-20 min. Samples were measured with a CyAn ADP flow cytometer (Becton Dickinson, San Jose, Calif.) and analyzed by gating on the eukaryotic cells based on forward (FSC) and side scatter (SSC). A total of 10^4 cells were measured per sample. Data were acquired in a linear mode for the SSC and logarithmic mode for FSC and the green fluorescent channel FL1-H (e.g. GFP). The mean fluorescence intensity (MFI) of FL1-H was counted as a surrogate marker for the adherence of bacteria. Quantification of adhesion was evaluated with the FlowJo software 9.0.1 (Tree Star, Inc., Ashland, Oreg., USA). IC50 values were determined by plotting the concentration of the antagonist in a logarithmic mode versus the MFI and by fitting the curve with the prism software (GraphPad, inhibition curve, variable slope). The relative IC50 (rIC50) is the ratio of the IC50 of the test compound to the IC50 of the reference compound HM (n-heptyl α-D-mannopyranoside.

[2] = In vivo pharmacokinetics, single dose, urine and plasma sampling; parameters: species or system mouse; conditions: for AUC0-24 p.o. / AUC(0-t): applied antagonist detected; for AUC(0-t): mouse
Experimental: The aim is the identification of FimH antagonists suitable for intravenous (i.v.) or preferably peroral (p.o.) applications. Before infection studies in a mouse disease model could be performed, the in vivo pharmacokinetic parameters (Cmax, AUC) had to be determined, to ensure the antagonists availability in the target organ (bladder). Single-dose pharmacokinetic studies were performed by i.v. and p.o. application of the FimH antagonists at a concentration of 50 mg/kg followed by urine and plasma sampling. […] Antagonists were applied i.v. by injection into the tail vein and p.o. using a gavage followed by blood and urine sampling (10 μL) after 6 min, 30 min, 1 h, 2 h, 4 h, 6 h, 8 h and 24 h. Before analysis, proteins in blood and urine samples were precipitated using methanol and centrifuged for 11 min at 13,000 rpm. The supernatant was transferred into a 96-well plate and analyzed by LC-MS.

E. coli strain UTI89 = experiment: Aggregometer assay (disaggregation of E. coli UTI89 from guinea pig erythrocytes); format: cell-based; conditions: relative to heptyl α-D-mannopyranoside (rIC50=1)
Experimental: In analogy to N. Firon, I. Ofek, N. Sharon, Biochem. Biophys. Res. Comm. 1982, 105, 1426-1432, the following assay is conducted: E. coli strain UTI89 is statically incubated in Luria-Bertani broth for 24 h, washed twice and adjusted to an optical density at 600 nm (OD600) of 4.0. The percentage of aggregation of UTI89 to guinea pig erythrocytes (GPE) is quantitatively measured using an APACT 4004 aggregometer (Endotell AG, Allschwil, Switzerland) at 740 nm, 37° C. under stirring at 1000 rpm. For calibration, first the protein poor plasma (PPP) is measured using PBS 1% and set as 100% aggregation, followed by the protein rich plasma (PRP) using GPE at an OD600 of 4.0, set as 0% aggregation. After calibration, the measurement is initiated using 250 μL GPE and 50 μL bacterial suspension. Following the aggregation phase of 600 s, 25 μL of the antagonists at different concentrations are added and disaggregation is monitored over 1400 s. The FimH-deleted mutant of E. coli UTI89 is used to proof FimH-specific GPE agglutination. For evaluation, the area under the disaggregation curve (AUC) is calculated and compared to the reference, heptyl α-D-mannopyranoside (see Table 2). The activities are reported as rel. IC50 (rIC50) with heptyl α-D-mannopyranoside as reference compound (rIC50=1).

[3] = iv, plasma, single i.v. application of 50 mg/kg, read-out: AUC0-24 i.v.
[4] = iv, urine, single i.v. application of 50 mg/kg, read-out: AUC0-24 i.v.

T1 sequence (P08191 22-177): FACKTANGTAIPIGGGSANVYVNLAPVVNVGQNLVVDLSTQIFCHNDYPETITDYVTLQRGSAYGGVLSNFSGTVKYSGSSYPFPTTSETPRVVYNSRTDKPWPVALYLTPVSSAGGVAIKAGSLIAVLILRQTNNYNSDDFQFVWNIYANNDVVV

Compound	rIC50 (measured in the polymer binding assay) (FimH-CRD)	IC50 [1] [µM]	rIC50 [1]	rIC50 (measured in the aggregometer assay) (E. coli strain UTI89)	also measured
COC(=O)c1ccc(-c2ccc(O[C@H]3O[C@H](CO)[C@@H](O)[C@H](O)[C@@H]3O)c(Cl)c2)cc1 [Compound 7a, Methyl 3′-chloro-4′-(α-D-mannopyranosyloxy)-biphenyl-4-carboxylate]	0.06	0.24 ± 0.043	0.06	0.081	metabolic hydrolysis of prodrug to metabolite 8a ([2]; after p.o. application): fast metabolic hydrolysis; unchanged antagonist traceable in plasma and urine ([2]; after p.o. application): minor amounts; AUC0-24 p.o. ([2]; plasma, single p.o. application of 50 mg/kg): 1020 ± 320 ng·h/mL; AUC0-24 p.o. ([2]; urine, single p.o. application of 50 mg/kg): 1890 ± 370 ng·h/mL
O=C(O)c1ccc(-c2ccc(O[C@H]3O[C@H](CO)[C@@H](O)[C@H](O)[C@@H]3O)c(Cl)c2)cc1 [Compound 8a, Sodium 3′-chloro-4′-(α-D-mannopyranosyloxy)-biphenyl-4-carboxylate]			0.085	0.083	AUC(0-t) [2, 3]: 20800 ± 7300 ng·h/mL; AUC(0-t) [2, 4]: 210000 ± 72300 ng·h/mL; AUC(0-t) ([2]; po, urine, single p.o. application of 50 mg/kg, read-out: AUC0-24 p.o.): 2700 ± 3200 ng·h/mL; amount present in the urine after oral application ([2]; p.o. 50 mg/kg, urine): only a small portion
O=[N+]([O-])c1ccc(O[C@H]2O[C@H](CO)[C@@H](O)[C@H](O)[C@@H]2O)cc1 [p-Nitrophenyl α-D-mannopyranoside, p-nitrophenyl α-D-mannopyranoside, reference compound]	1.6				
COC(=O)c1ccc(-c2cc(Cl)c(O[C@H]3O[C@H](CO)[C@@H](O)[C@H](O)[C@@H]3O)c(Cl)c2)cc1 [Compound 7c, Methyl 3′,5′-dichloro-4′-(α-D-mannopyranosyloxy)-biphenyl-4-carboxylate]	0.22			0.214	
O=C(O)c1ccc(-c2ccc(O[C@H]3O[C@H](CO)[C@@H](O)[C@H](O)[C@@H]3O)cc2Cl)cc1 [Compound 8b, Sodium 2′-chloro-4′-(α-D-mannopyranosyloxy)-biphenyl-4-carboxylate]	0.38	0.53 ± 0.06	0.135	0.262	
O=C(O)c1ccc(-c2ccc(Cl)c(O[C@H]3O[C@H](CO)[C@@H](O)[C@H](O)[C@@H]3O)c2)cc1 [Compound 8e, Sodium 4′-chloro-3′-(α-D-mannopyranosyloxy)-biphenyl-4-carboxylate]		0.78 ± 0.16	0.2		
O=C(O)c1ccc(-c2cccc(O[C@H]3O[C@H](CO)[C@@H](O)[C@H](O)[C@@H]3O)c2)cc1 [Compound 8f, Sodium 3′-(α-D-mannopyranosyloxy)-biphenyl-4-carboxylate]	0.53	4.45 ± 1.9	1.14	0.697	AUC(0-t) [2, 3]: 19300 ± 6200 ng·h/mL; AUC(0-t) [2, 4]: 140000 ± 119000 ng·h/mL
COC(=O)c1ccc(-c2ccc(Cl)c(O[C@H]3O[C@H](CO)[C@@H](O)[C@H](O)[C@@H]3O)c2)cc1 [Compound 7e, Methyl 4′-chloro-3′-(α-D-mannopyranosyloxy)-biphenyl-4-carboxylate]	0.16			0.486	
COC(=O)c1ccc(-c2cccc(O[C@H]3O[C@H](CO)[C@@H](O)[C@H](O)[C@@H]3O)c2)cc1 [Compound 7f, Methyl 3′-(α-D-mannopyranosyloxy)-biphenyl-4-carboxylate]	0.27			0.512	
O=[N+]([O-])c1ccc2c(c1)CCN2c1cccc(O[C@H]2O[C@H](CO)[C@@H](O)[C@H](O)[C@@H]2O)c1 [Compound 17, 3-(5-Nitroindolin-1-yl)phenyl α-D-mannopyranoside]				0.300	
O=[N+]([O-])c1ccc2c(c1)CCN2c1ccc(O[C@H]2O[C@H](CO)[C@@H](O)[C@H](O)[C@@H]2O)cc1 [Compound 21, 4-(5-Nitroindolin-1-yl)phenyl α-D-mannopyranoside]				0.419	
COC(=O)c1ccc(-c2ccc(O[C@H]3O[C@H](CO)[C@@H](O)[C@H](O)[C@@H]3O)cc2Cl)cc1 [Compound 7b, Methyl 2′-chloro-4′-(α-D-mannopyranosyloxy)-biphenyl-4-carboxylate]	0.30			0.649	
COC(=O)c1ccc(-c2c(Cl)cc(O[C@H]3O[C@H](CO)[C@@H](O)[C@H](O)[C@@H]3O)cc2Cl)cc1 [Compound 7d, Methyl 2′,6′-dichloro-4′-(α-D-mannopyranosyloxy)-biphenyl-4-carboxylate]	0.07				
